Source: PubChem BioAssay AID1963958 (Molecular Pharmacology Branch, DTP, NCI, 2024)

Test system: MDA-MB-231 multicell spheroids, viability
Test: Anticancer human tumor MDA-MB-231 cell line growth inhibition [PI3K];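 note: spheroids exposed to agents for seven days before reading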;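 for viability, T/C: percent of vehicle control luminescence with DMSO treated spheroids as 100%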
Conditions: for IC50: curve of first compound; for viability, T/C: stronger effect = lower value
In short: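 Combination activity was assessed by viability in multicellular tumor spheroids carrying HUVEC and MSC components. Agents were tested with PI3K inhibitors from a Cmax-based top dose (or 10 microM) downward in half-log increments.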

[1] = second compound 0.0316 µM, first compound 0.0316 µM
[2] = second compound 0.0316 µM, first compound 0.1 µM
[3] = second compound 0.0316 µM, first compound 0.316 µM
[4] = second compound 0.0316 µM, first compound 1 µM
[5] = second compound 0.0316 µM, first compound 3.16 µM
[6] = second compound 0.0316 µM, first compound 10 µM
[7] = second compound 0.1 µM, first compound 0.0316 µM
[8] = second compound 0.1 µM, first compound 0.1 µM
[9] = second compound 0.1 µM, first compound 0.316 µM
[10] = second compound 0.1 µM, first compound 1 µM
[11] = second compound 0.1 µM, first compound 3.16 µM
[12] = second compound 0.1 µM, first compound 10 µM
[13] = second compound 0.316 µM, first compound 0.0316 µM
[14] = second compound 0.316 µM, first compound 0.1 µM
[15] = second compound 0.316 µM, first compound 0.316 µM
[16] = second compound 0.316 µM, first compound 1 µM
[17] = second compound 0.316 µM, first compound 3.16 µM
[18] = second compound 0.316 µM, first compound 10 µM
[19] = second compound 1 µM, first compound 0.0316 µM
[20] = second compound 1 µM, first compound 0.1 µM
[21] = second compound 1 µM, first compound 0.316 µM
[22] = second compound 1 µM, first compound 1 µM
[23] = second compound 1 µM, first compound 3.16 µM
[24] = second compound 1 µM, first compound 10 µM
[25] = second compound 3.16 µM, first compound 0.0316 µM
[26] = second compound 3.16 µM, first compound 0.1 µM
[27] = second compound 3.16 µM, first compound 0.316 µM
[28] = second compound 3.16 µM, first compound 1 µM
[29] = second compound 3.16 µM, first compound 3.16 µM
[30] = second compound 3.16 µM, first compound 10 µM
[31] = second compound 10 µM, first compound 0.0316 µM
[32] = second compound 10 µM, first compound 0.1 µM
[33] = second compound 10 µM, first compound 0.316 µM
[34] = second compound 10 µM, first compound 1 µM
[35] = second compound 10 µM, first compound 3.16 µM
[36] = second compound 10 µM, first compound 10 µM

C#Cc1c(F)ccc2cc(O)cc(-c3ncc4c(N5CC6CCC(C5)N6)nc(OCC56CCCN5CC(F)C6)nc4c3F)c12 (stereo unspecified) + CC(Nc1ncnc2nc[nH]c12)c1cc2cccc(Cl)c2c(=O)n1-c1ccccc1 was tested, and the IC50 (second compound 0.0316 µM) was > 10 µM, the IC50 (second compound 0.1 µM) was > 10 µM and the IC50 (second compound 0.316 µM) was > 10 µM. The IC50 (second compound 1 µM) was 6.63 µM, the IC50 (second compound 3.16 µM) was 1.94 µM and the IC50 (second compound 10 µM) was 0.0387 µM. It also gave a viability, T/C [1] of 109%, a viability, T/C [2] of 96.2% and a viability, T/C [3] of 103%. It also gave a viability, T/C [4] of 94.6%, a viability, T/C [5] of 89.9% and a viability, T/C [6] of 61.1%. The viability, T/C [7] was 101%, the viability, T/C [8] was 99.1% and the viability, T/C [9] was 90.6%. It also gave a viability, T/C [10] of 88.3%, a viability, T/C [11] of 79.5% and a viability, T/C [12] of 57.7%. The viability, T/C [13] was 99.2%, the viability, T/C [14] was 89% and the viability, T/C [15] was 87.6%. It also gave a viability, T/C [16] of 86.4%, a viability, T/C [17] of 77.5% and a viability, T/C [18] of 53.2%. For the same molecule, the viability, T/C [19] was 75.5%, the viability, T/C [20] was 83.2% and the viability, T/C [21] was 90.2%. For the same molecule, the viability, T/C [22] was 72.8%, the viability, T/C [23] was 62.4% and the viability, T/C [24] was 43.5%. For the same molecule, the viability, T/C [25] was 65.5%, the viability, T/C [26] was 62.8% and the viability, T/C [27] was 56.6%. The viability, T/C [28] was 56.5%, the viability, T/C [29] was 46.7% and the viability, T/C [30] was 33.1%. It also gave a viability, T/C [31] of 51.4%, a viability, T/C [32] of 46.8% and a viability, T/C [33] of 44.4%. It also gave a viability, T/C [34] of 39.8%, a viability, T/C [35] of 35.4% and a viability, T/C [36] of 26.4%.

C=CC(=O)N1CCN(c2nc(=O)n(-c3c(C)ccnc3C(C)C)c3nc(-c4c(O)cccc4F)c(F)cc23)C(C)C1 (stereo unspecified) + CC(Nc1ncnc2nc[nH]c12)c1cc2cccc(Cl)c2c(=O)n1-c1ccccc1 was tested, and the IC50 (second compound 0.0316 µM) was > 10 µM, the IC50 (second compound 0.1 µM) was > 10 µM and the IC50 (second compound 0.316 µM) was > 10 µM. For the same molecule, the IC50 (second compound 1 µM) was > 10 µM, the IC50 (second compound 3.16 µM) was > 10 µM and the IC50 (second compound 10 µM) was > 10 µM. The viability, T/C [1] was 104%, the viability, T/C [2] was 110% and the viability, T/C [3] was 115%. The viability, T/C [4] was 134%, the viability, T/C [5] was 131% and the viability, T/C [6] was 118%. For the same molecule, the viability, T/C [7] was 111%, the viability, T/C [8] was 103% and the viability, T/C [9] was 113%. The viability, T/C [10] was 132%, the viability, T/C [11] was 131% and the viability, T/C [12] was 118%. The viability, T/C [13] was 101%, the viability, T/C [14] was 98.7% and the viability, T/C [15] was 111%. It also gave a viability, T/C [16] of 115%, a viability, T/C [17] of 133% and a viability, T/C [18] of 114%. It also gave a viability, T/C [19] of 86.9%, a viability, T/C [20] of 90.1% and a viability, T/C [21] of 95.7%. For the same molecule, the viability, T/C [22] was 106%, the viability, T/C [23] was 108% and the viability, T/C [24] was 96%. It also gave a viability, T/C [25] of 66.5%, a viability, T/C [26] of 70.9% and a viability, T/C [27] of 73.5%. For the same molecule, the viability, T/C [28] was 79.5%, the viability, T/C [29] was 88.2% and the viability, T/C [30] was 78.4%. It also gave a viability, T/C [31] of 51%, a viability, T/C [32] of 52.5% and a viability, T/C [33] of 55.5%. It also gave a viability, T/C [34] of 59%, a viability, T/C [35] of 58.5% and a viability, T/C [36] of 54.6%.

With CC(Cn1ccc(-c2ccc(C#N)c(Cl)c2)n1)NC(=O)c1cc(C(C)O)[nH]n1 (stereo unspecified) + CC(Nc1ncnc2nc[nH]c12)c1cc2cccc(Cl)c2c(=O)n1-c1ccccc1 the IC50 (second compound 0.0316 µM) was > 10 µM, the IC50 (second compound 0.1 µM) was > 10 µM and the IC50 (second compound 0.316 µM) was > 10 µM. The IC50 (second compound 1 µM) was > 10 µM, the IC50 (second compound 3.16 µM) was > 10 µM and the IC50 (second compound 10 µM) was < 0.0316 µM. It also gave a viability, T/C [1] of 100%, a viability, T/C [2] of 95.7% and a viability, T/C [3] of 99.6%. The viability, T/C [4] was 98.5%, the viability, T/C [5] was 96% and the viability, T/C [6] was 82.3%. It also gave a viability, T/C [7] of 92.9%, a viability, T/C [8] of 98.3% and a viability, T/C [9] of 97.9%. For the same molecule, the viability, T/C [10] was 95.2%, the viability, T/C [11] was 92.4% and the viability, T/C [12] was 78.4%. The viability, T/C [13] was 81.9%, the viability, T/C [14] was 93% and the viability, T/C [15] was 95%. It also gave a viability, T/C [16] of 88.5%, a viability, T/C [17] of 87.9% and a viability, T/C [18] of 75.7%. The viability, T/C [19] was 70.6%, the viability, T/C [20] was 79.4% and the viability, T/C [21] was 78.4%. The viability, T/C [22] was 79.5%, the viability, T/C [23] was 72.2% and the viability, T/C [24] was 64.5%. It also gave a viability, T/C [25] of 61.3%, a viability, T/C [26] of 61% and a viability, T/C [27] of 61.4%. For the same molecule, the viability, T/C [28] was 56.2%, the viability, T/C [29] was 56.9% and the viability, T/C [30] was 49.2%. The viability, T/C [31] was 47%, the viability, T/C [32] was 44.3% and the viability, T/C [33] was 47.8%. The viability, T/C [34] was 45.5%, the viability, T/C [35] was 42% and the viability, T/C [36] was 36%.
